# According to US10487093B2, “Heterocyclic compounds, in particular 2-oxo-4,4,5,5,6,6,7,7-octahydrobenzoxazole derivatives, and their use as antibacterial compounds” (priority 2016, dated 2019):
# Like-named read-outs stand apart in the source and are kept apart here.
# Tests used:
# Assay type in all cases: cell-based
# [1] = test system: strains of Clostridium perfringens; assay: microbe, parasite or virus in culture
# [2] = test system: Acinetobacter baumannii NCTC 13420; assay: MIC, broth microdilution (CLSI) versus planktonic bacteria; conditions: NCTC13420; Acinetobacter baumannii NCTC 13420; 16-20 h; mode of three independent experiments; read-out: MIC, Ab NCTC 13420
# [3] = test system: strains of Bacteroides fragilis; assay: MIC against anaerobes, agar dilution (CLSI), clinical isolates
# [4] = test system: strains of Bacteroides thetaiotaomicron; assay: microbe, parasite or virus in culture
# [5] = test system: strains of Peptoniphilus harei; assay: MIC against anaerobes, agar dilution (CLSI), clinical isolates; conditions: Peptoniphilus harei, read-out: MIC
# [6] = test system: Haemophilus influenzae ATCC 49247; assay: MIC, broth microdilution (CLSI) versus planktonic bacteria; conditions: ATCC49247; Haemophilus influenzae ATCC 49247; 16-20 h; mode of three independent experiments; read-out: MIC, Hi ATCC 49247
# [7] = test system: strains of Propionibacterium acnes; assay: MIC against anaerobes, agar dilution (CLSI), clinical isolates; conditions: Cutibacterium acnes
# [8] = test system: Clostridium difficile ATCC 700057; assay: MIC against anaerobes, agar dilution (CLSI), reference strain; conditions: Clostridioides difficile, ATCC700057, 48 h, read-out: MIC, C. difficile ATCC 700057
# [9] = test system: strains of Finegoldia magna; assay: MIC against anaerobes, agar dilution (CLSI), clinical isolates; conditions: Finegoldia magna, read-out: MIC
# [10] = test system: strains of Prevotella melaninogenica; assay: as above
# [11] = test system: Bacteroides fragilis ATCC 25285; assay: MIC against anaerobes, agar dilution (CLSI), reference strain; conditions: ATCC25285, agar dilution, Brucella blood agar, 35° C., 48 h, anaerobic conditions, read-out: MIC, B. fragilis ATCC 25285
# [12] = test system: Bacteroides thetaiotaomicron ATCC 29741; assay: microbe, parasite or virus in culture; conditions: ATCC29741, agar dilution, Brucella blood agar, 35° C., 48 h, anaerobic conditions, read-out: MIC, B. thetaiotaomicron ATCC
# [13] = test system: strains of Peptostreptococcus anaerobius; assay: MIC against anaerobes, agar dilution (CLSI), clinical isolates
# [14] = test system: strains of Prevotella bivia; assay: as above
# [15] = test system: strains of Parvimonas micra; assay: as above
smiles,measurement,setting,value
"Cc1ccc2ncc(=O)n(CCN[C@H]3CC[C@H]4[C@@H](C3)OC(=O)N4c3ccc4c(n3)NC(=O)CO4)c2c1 [Compound 27, 1-(2-{[(3aS,6S,7aR)-2-oxo-3-{3-oxo-2H,3H,4H-pyrido[3,2-b][1,4]oxazin-6-yl}-octahydro-1,3-benzoxazol-6-yl]amino}ethyl)-7-methyl-1,2-dihydroquinoxalin-2-one]",MIC,[1]; Clostridium perfringens strain 1,< 1 µg/mL
same,MIC,[1]; Clostridium perfringens strain 2,< 1 µg/mL
same,MIC,[1]; Clostridium perfringens strain 3,< 1 µg/mL
same,MIC,[1]; Clostridium perfringens strain 4,< 1 µg/mL
same,MIC,[1]; Clostridium perfringens strain 5,< 1 µg/mL
same,MIC,[1]; Clostridium perfringens strain 6,< 1 µg/mL
same,MIC,[1]; Clostridium perfringens strain 7,< 1 µg/mL
same,MIC,[1]; Clostridium perfringens strain 8,1 to 4 µg/mL
same,MIC,[1]; Clostridium perfringens strain 9,< 1 µg/mL
same,MIC,[1]; Clostridium perfringens strain 10,< 1 µg/mL
same,MIC,[1]; Clostridium perfringens strain 11,< 1 µg/mL
same,MIC,[2],1 to 10 µg/mL
same,MIC,[3]; Bacteroides fragilis strain 1,16 to 64 µg/mL
same,MIC,[3]; Bacteroides fragilis strain 2,1 to 4 µg/mL
same,MIC,[3]; Bacteroides fragilis strain 3,1 to 4 µg/mL
same,MIC,[3]; Bacteroides fragilis strain 4,1 to 4 µg/mL
same,MIC,[3]; Bacteroides fragilis strain 5,1 to 4 µg/mL
same,MIC,[3]; Bacteroides fragilis strain 6,1 to 4 µg/mL
same,MIC,[3]; Bacteroides fragilis strain 7,4 to 16 µg/mL
same,MIC,[3]; Bacteroides fragilis strain 8,1 to 4 µg/mL
same,MIC,[3]; Bacteroides fragilis strain 9,1 to 4 µg/mL
same,MIC,[3]; Bacteroides fragilis strain 10,1 to 4 µg/mL
same,MIC,[3]; Bacteroides fragilis strain 11,1 to 4 µg/mL
same,MIC,[3]; Bacteroides fragilis strain 12,1 to 4 µg/mL
same,MIC,"[4]; Bacteroides thetaiotaomicron strain 1, read-out: MIC",4 to 16 µg/mL
same,MIC,"[4]; Bacteroides thetaiotaomicron strain 2, read-out: MIC",1 to 4 µg/mL
same,MIC,"[4]; Bacteroides thetaiotaomicron strain 3, read-out: MIC",4 to 16 µg/mL
same,MIC,"[4]; Bacteroides thetaiotaomicron strain 4, read-out: MIC",4 to 16 µg/mL
same,MIC,"[4]; Bacteroides thetaiotaomicron strain 5, read-out: MIC",1 to 4 µg/mL
same,MIC,"[4]; Bacteroides thetaiotaomicron strain 6, read-out: MIC",4 to 16 µg/mL
same,MIC,"[4]; Bacteroides thetaiotaomicron strain 7, read-out: MIC",4 to 16 µg/mL
same,MIC,"[4]; Bacteroides thetaiotaomicron strain 8, read-out: MIC",1 to 4 µg/mL
same,MIC,"[4]; Bacteroides thetaiotaomicron strain 9, read-out: MIC",< 1 µg/mL
same,MIC,"[4]; Bacteroides thetaiotaomicron strain 10, read-out: MIC",1 to 4 µg/mL
same,MIC,"[4]; Bacteroides thetaiotaomicron strain 11, read-out: MIC",4 to 16 µg/mL
same,MIC,[5]; Peptoniphilus harei strain 1,< 1 µg/mL
same,MIC,[5]; Peptoniphilus harei strain 2,< 1 µg/mL
same,MIC,[5]; Peptoniphilus harei strain 3,< 1 µg/mL
same,MIC,[5]; Peptoniphilus harei strain 4,< 1 µg/mL
same,MIC,[5]; Peptoniphilus harei strain 5,< 1 µg/mL
same,MIC,[5]; Peptoniphilus harei strain 6,< 1 µg/mL
same,MIC,[5]; Peptoniphilus harei strain 7,< 1 µg/mL
same,MIC,[5]; Peptoniphilus harei strain 8,< 1 µg/mL
same,MIC,[5]; Peptoniphilus harei strain 9,< 1 µg/mL
same,MIC,[5]; Peptoniphilus harei strain 10,< 1 µg/mL
same,MIC,[5]; Peptoniphilus harei strain 11,< 1 µg/mL
same,MIC,[5]; Peptoniphilus harei strain 12,< 1 µg/mL
same,MIC,[6],1 to 10 µg/mL
same,MIC,[7]; Propionibacterium acnes strain 1,1 to 4 µg/mL
same,MIC,[7]; Propionibacterium acnes strain 2,< 1 µg/mL
same,MIC,[7]; Propionibacterium acnes strain 3,< 1 µg/mL
same,MIC,[7]; Propionibacterium acnes strain 4,< 1 µg/mL
same,MIC,[7]; Propionibacterium acnes strain 5,1 to 4 µg/mL
same,MIC,[7]; Propionibacterium acnes strain 6,1 to 4 µg/mL
same,MIC,[7]; Propionibacterium acnes strain 7,1 to 4 µg/mL
same,MIC,[7]; Propionibacterium acnes strain 8,1 to 4 µg/mL
same,MIC,[7]; Propionibacterium acnes strain 9,1 to 4 µg/mL
same,MIC,[7]; Propionibacterium acnes strain 10,1 to 4 µg/mL
same,MIC,[7]; Propionibacterium acnes strain 11,< 1 µg/mL
same,MIC,[7]; Propionibacterium acnes strain 12,1 to 4 µg/mL
same,MIC,[8],1 to 4 µg/mL
same,MIC,[9]; Finegoldia magna strain 1,1 to 4 µg/mL
same,MIC,[9]; Finegoldia magna strain 2,16 to 64 µg/mL
same,MIC,[9]; Finegoldia magna strain 3,1 to 4 µg/mL
same,MIC,[9]; Finegoldia magna strain 4,16 to 64 µg/mL
same,MIC,[9]; Finegoldia magna strain 5,16 to 64 µg/mL
same,MIC,[9]; Finegoldia magna strain 6,16 to 64 µg/mL
same,MIC,[9]; Finegoldia magna strain 7,> 64 µg/mL
same,MIC,[9]; Finegoldia magna strain 8,1 to 4 µg/mL
same,MIC,[9]; Finegoldia magna strain 9,> 64 µg/mL
same,MIC,[9]; Finegoldia magna strain 10,4 to 16 µg/mL
same,MIC,[9]; Finegoldia magna strain 11,16 to 64 µg/mL
same,MIC,[9]; Finegoldia magna strain 12,16 to 64 µg/mL
same,MIC,[10]; Prevotella melaninogenica strain 1,1 to 4 µg/mL
same,MIC,[10]; Prevotella melaninogenica strain 2,< 1 µg/mL
same,MIC,[10]; Prevotella melaninogenica strain 3,< 1 µg/mL
same,MIC,[10]; Prevotella melaninogenica strain 4,< 1 µg/mL
same,MIC,[10]; Prevotella melaninogenica strain 5,< 1 µg/mL
same,MIC,[10]; Prevotella melaninogenica strain 6,< 1 µg/mL
same,MIC,[10]; Prevotella melaninogenica strain 7,< 1 µg/mL
same,MIC,[10]; Prevotella melaninogenica strain 8,< 1 µg/mL
same,MIC,[10]; Prevotella melaninogenica strain 9,< 1 µg/mL
same,MIC,[10]; Prevotella melaninogenica strain 10,1 to 4 µg/mL
same,MIC,[10]; Prevotella melaninogenica strain 11,< 1 µg/mL
same,MIC,[11],4 to 16 µg/mL
same,MIC,[12],1 to 4 µg/mL
same,MIC,[13]; Peptostreptococcus anaerobius strain 1,< 1 µg/mL
same,MIC,[13]; Peptostreptococcus anaerobius strain 2,< 1 µg/mL
same,MIC,[13]; Peptostreptococcus anaerobius strain 3,< 1 µg/mL
same,MIC,[13]; Peptostreptococcus anaerobius strain 4,4 to 16 µg/mL
same,MIC,[13]; Peptostreptococcus anaerobius strain 5,< 1 µg/mL
same,MIC,[13]; Peptostreptococcus anaerobius strain 6,< 1 µg/mL
same,MIC,[13]; Peptostreptococcus anaerobius strain 7,< 1 µg/mL
same,MIC,[13]; Peptostreptococcus anaerobius strain 8,< 1 µg/mL
same,MIC,[13]; Peptostreptococcus anaerobius strain 9,< 1 µg/mL
same,MIC,[13]; Peptostreptococcus anaerobius strain 10,< 1 µg/mL
same,MIC,[14]; Prevotella bivia strain 1,< 1 µg/mL
same,MIC,[14]; Prevotella bivia strain 2,< 1 µg/mL
same,MIC,[14]; Prevotella bivia strain 3,1 to 4 µg/mL
same,MIC,[14]; Prevotella bivia strain 4,1 to 4 µg/mL
same,MIC,[14]; Prevotella bivia strain 5,< 1 µg/mL
same,MIC,[14]; Prevotella bivia strain 6,1 to 4 µg/mL
same,MIC,[14]; Prevotella bivia strain 7,1 to 4 µg/mL
same,MIC,[14]; Prevotella bivia strain 8,< 1 µg/mL
same,MIC,[14]; Prevotella bivia strain 9,< 1 µg/mL
same,MIC,[14]; Prevotella bivia strain 10,< 1 µg/mL
same,MIC,[15]; Parvimonas micra strain 1,> 64 µg/mL
same,MIC,[15]; Parvimonas micra strain 2,16 to 64 µg/mL
same,MIC,[15]; Parvimonas micra strain 3,> 64 µg/mL
same,MIC,[15]; Parvimonas micra strain 4,> 64 µg/mL
same,MIC,[15]; Parvimonas micra strain 5,> 64 µg/mL
same,MIC,[15]; Parvimonas micra strain 6,1 to 4 µg/mL
same,MIC,[15]; Parvimonas micra strain 7,16 to 64 µg/mL
same,MIC,[15]; Parvimonas micra strain 8,16 to 64 µg/mL
same,MIC,[15]; Parvimonas micra strain 9,16 to 64 µg/mL
same,MIC,[15]; Parvimonas micra strain 10,16 to 64 µg/mL
same,MIC,[15]; Parvimonas micra strain 11,16 to 64 µg/mL
same,MIC,[15]; Parvimonas micra strain 12,16 to 64 µg/mL
